# pIC50: −log10 of the molar value. Read-outs that look alike come from different tables or passages of the source.
# Assays:
# [1] = system: Karpas cells; assay: Glo assay of Karpas cells (Table 3; ProteasomeGlo plating scheme); type: cell-based; settings: read-out: Pglo Karpas
# Text: Inhibition is indicated as IC50 [nM] (“-”=not measured). […] • Chymotrypsin-Like Cell-Based Proteasome-GloTM Assay (Promega; […]) • Cell culture 384-well plates (Greiner BioOne; 781080) • Dispensing cassette, MultiDrop Standard tube dispensing cassette (Thermo Scientific; 24072670) • DPBS (Pan BioTech; P04-36500) • Cell culture 384-well plates (Greiner BioOne; 781080) • CPD source plate: diamond-shape plate (Labcyte; LP-0200) • Intermediate plate (Labcyte; P-05525) [table] • a. Remove the plates with cells from the incubator. • b. Take all the plates including the compound plate, intermediate plate and Staurosporine plate to the ECHO. • c. Click on “Open” in the ECHO software and select the protocol “QLI5_25ul_30 uM-Grenier”. • d. Follow the on-screen prompts and instructions once you click “Start” to insert the compound plate, intermediate plate and destination plates. • e. Change the final number of destination plates on the program. • f. Follow the on-screen prompts and instructions once you click “Start” to load the Staurosporine and destination plates. • g. Once all the compounds, DMSO and Staurosporine have been transferred, place the destination plates in a wet tissue box. • h. Place the destination plates back into the incubator and incubate at 37° C., 5% CO2 for 105 minutes. • i. Re-seal all the compound+Stauro diamond and intermediate plates and store in the dark. Chymotrypsin like ProteasomeGlo Assay • 1. Thaw the components of the ProteasomeGlo assay at room temperature including the ProteasomeGlo Buffer, the lyophilized Luciferin Detection Reagent and the Suc-LLVY-Glo Substrate. • 2. Reconstitute the Luciferin Detection Reagent in the amber coloured bottle by adding 50 ml of the ProteasomeGlo Buffer. • 3. Vortex the Suc-LLVY-Glo Substrate briefly to reconstitute the Substrate well. • 4. Spin down the Substrate and add 250 μl of the Substrate to the reconstituted Luciferin Detection Reagent from step 2. • 5. Briefly vortex the amber bottle with the mix to prepare a homogenous solution. • 6. Place the mix prepared in step 5 to sit at room temperature for 60 minutes. • 7. After 60 minutes, pipette 25 μl of the mix from step 5 into all wells with the cells. • 8. Shake the plates for 2-5 minutes to ensure the complete mixing of the ProteasomeGlo reagent with the cells. • 9. Leave the plates in the dark for 10-15 minutes. • 10. Measure the luminescence read-out using the Viktor and the protocol “Luminescence_384Well_0.2 sec”. (Note: The Protoeasome-GloTM Reagent (combined Proteasome-GloTM Substrate, Proteasome-GloTM Buffer and Luciferin Detection Reagent) can be stored at 4° C. or -20° C. for 1 month with minimal loss of activity.)
# [2] = system: B-cells isolated from PBMC's; assay: Chymotrypsin-like ProteasomeGlo assay in B-cells isolated from PBMCs; type: cell-based, human; settings: for pIC50: B-cells isolated from PBMC's, read-out: Pglo B-Cell
# Text: PBMC's will be isolated from human blood followed by B-cell isolation from the PBMC's using the Miltenyi Isolation Kit. • 2. This experiment will use the Chymotrypsin-like ProteasomeGlo read-out to generate IC50's following compound treatment. • 3. Dilute all compounds 1:100 for the assay. • 4. […] Repeat the DMSO transfer with lane 12. • 5. Lane 12 should not be seeded with any cells. Only medium! • 6. For all steps, make sure the samples and reagents remain cool! • 7. While dealing with the buffy coats, be careful to not let any exposed skin to be in direct contact with the blood. […] PBMC isolation followed by B-cell isolation using the Miltenyi Kit • Day 2: B-cell plating, ECHO transfer and ProteasomeGlo assay For the initial steps and to make processing the buffy coats easier, separately process the buffy coats. • a. Cut the tube attached to the buffy coats carefully using a clean, sterile and fresh scalpel. • b. Transfer the blood into 2 individual 50 ml falcons. • c. Add an equal volume of DPBS to the blood in the falcons. • d. Add 20 ml of lymphocyte separating medium to two 50 ml falcons. • e. Carefully pour 15-20 ml of the blood+DPBS mix from step c. onto the lymphocyte separating medium from step d. • f. Centrifuge the falcons with the lymphocyte separating medium+blood mix at 800×g for 15 minutes using a swing-out rotor. • g. Following centrifugation, carefully remove the falcons from the centrifuge. • h. The following layers will be observed: • i. Aspirate the plasma layer off carefully without disturbing the different layers. • j. Remove the cell pellet using a pipette into two fresh 50 ml falcons. • k. Fill the falcons with the cells up to 50 ml with DPBS. • l. Centrifuge the falcons at 250×g for 10 minutes using a swing-out rotor (Brake-off). • m. Aspirate the complete DPBS off the cells without disturbing the cell pellet at the bottom of the falcon. • n. Re-suspend the cell pellet in 10 ml of 1×RBC lysis buffer. • o. Incubate the falcons at room temperature in the dark for 10 minutes. • p. After RBC lysis, centrifuge the tubes at 250×g for 10 minutes using a swing-out rotor (brake-off). • (*Note: If the cell pellet is still red or light red, repeat steps n. to p.!) • q. Re-suspend the cell pellet in DPBS up to 50 ml in the falcon. • r. Centrifuge the falcons at 250×g for 10 minutes using a swing-out rotor (Brake-off). • s. Aspirate the DPBS off the cells without disturbing the cell pellet at the bottom of the falcon. • t. Repeat the wash step as described in steps q. to s. 2× times more (total number of washes is 3×). • u. Aspirate the DPBS completely off the cell pellet after the last wash without disturbing the cell pellet. • v. Re-suspend the cell pellet in 20 ml of PBMC cell medium. • w. […] Re-suspend the pellet in volume of the B-cell isolation buffer calculated as follows: • k. Mix well using a 1 ml pipette and incubate the mix on ice for 20 mins. • l. In the meantime, equilibrate one LS Column as follows: • 1. Insert one LS Column into one slot of the separator as depicted in the pictures above. • 2. Place a 50 ml falcon at the bottom of the LS column to collect the wash flow-through. • 3. Add 3 ml of the B-cell isolation buffer into the column. • 4. Allow the buffer to flow-through making sure that the entire volume passes the column and that the column reservoir is empty before the addition of the cells. • 5. Remove the falcon with the flow-through and discard. • m. Place a fresh 50 ml falcon under the LS Column to collect the untouched B-cells isolated from the PBMCs. • n. Apply the entire volume of the cell+antibody+microbeads mix to the LS Column. • o. Collect the flow-through from each application of the mix into the same 50 ml falcon under the LS Column. • p. Once the complete volume of the cell+antibody+microbead mix has been passed through, proceed to washing of the column. • q. Add 3 ml of the B-cell isolation buffer to the LS Column and allow the buffer to flow-through. […]
# [3] = system: B cell; assay: B cell diff. (Table 4, method not given); type: cell-based
# [4] = system: PBMC; assay: PBMC IL 17 stim. (Table 4, method not given); type: cell-based
# [5] = from Cc1ccc(OCCC2CCCNC2)cc1CNC(=O)[C@H](CCc1ccccc1)NC(=O)[C@H](CC(=O)O)NC(=O)OCc1ccccc1; amide bond; HATU; DMF; 252.0 mM; 25.0 °C; 2 steps
SMILES,pIC50 ([3]; B-cell),pIC50 ([2]; Homo sapiens),also measured
"Cc1ccc2cc1CNC(=O)[C@H](CCc1ccccc1)NC(=O)[C@@H](NC(=O)Cc1ccccc1C)CC(=O)N1CCCC(CCO2)C1 (stereo partly drawn) [Compound 373, N-((9S,12S)-5^4-methyl-8,11,14-trioxo-9-phenethyl-4-oxa-7,10-diaza-1(3,1)-piperidina-5(1,3)-benzenacyclotetradecaphane-12-yl)-2-(o-tolyl)acetamide]",–,> 7.00,pIC50 [1]: > 7.00
"Cc1ccc2cc1CNC(=O)C(CCc1ccccc1)NC(=O)C(NC(=O)CCc1ccccc1)CC(=O)N1CCCC(CCO2)C1 [Compound 30, N-((9S,12S)-5^4-methyl-8,11,14-trioxo-9-phenethyl-4-oxa-7,10-diaza-1(3,1)-piperidina-5(1,3)-benzenacyclotetradecaphane-12-yl)-3-phenylpropanamide]",–,–,pIC50 [3]: > 7.00; pIC50 [2]: > 7.00
"Cc1ccc2cc1CNC(=O)[C@H](CCc1ccccc1)NC(=O)[C@@H](NC(=O)Cc1ccccc1)CC(=O)N1CCCC(CCO2)C1 (stereo partly drawn) [Compound 29, N-((9S,12S)-5^4-methyl-8,11,14-trioxo-9-phenethyl-4-oxa-7,10-diaza-1(3,1)-piperidina-5(1,3)-benzenacyclotetradecaphane-12-yl)-2-phenylacetamide]",> 7.00,> 7.00,pIC50 [4]: > 7.00
"Cc1ccc2cc1CNC(=O)[C@H](CCc1ccccc1)NC(=O)[C@@H](NC(=O)c1nc3ccccc3[nH]1)CC(=O)N1CCCC(CCO2)C1 (stereo partly drawn) [Compound 31, N-((9S,12S)-5^4-methyl-8,11,14-trioxo-9-phenethyl-4-oxa-7,10-diaza-1(3,1)-piperidina-5(1,3)-benzenacyclotetradecaphane-12-yl)-1H-benzo[d] imidazole-2-carboxamide]",–,> 7.00,–
"Cc1ccc2cc1CNC(=O)[C@H](CCc1ccccc1)NC(=O)[C@@H](NC(=O)OCc1ccccc1)CC(=O)N1CCCC(CCO2)C1 (stereo partly drawn) [Compound 7, benzyl ((9S,12S)-5^4-methyl-8,11,14-trioxo-9-phenethyl-4-oxa-7,10-diaza-1(3,1)-piperidina-5(1,3)-benzenacyclotetradecaphane-12-yl)carbamate]",–,–,"ring closure, yield of all isomers [5]: 68.9%"
"Cc1ccc2cc1CNC(=O)[C@H](CCc1ccccc1)NC(=O)[C@@H](NC(=O)CC(C)(C)C)CC(=O)N1CCCC(CCO2)C1 (stereo partly drawn) [Compound 28, 3,3-dimethyl-N-((9S,12S)-5^4-methyl-8,11,14-trioxo-9-phenethyl-4-oxa-7,10-diaza-1(3,1)-piperidina-5(1,3)-benzenacyclotetradecaphane-12-yl)butanamide]",–,–,pIC50 [1]: > 7.00
"Cc1ccc2cc1CNC(=O)[C@H](CCc1ccccc1)NC(=O)[C@@H](Nc1ncccn1)CC(=O)N1CCCC(CCO2)C1 (stereo partly drawn) [Compound 34, (9S,12S)-5^4-methyl-9-phenethyl-12-(pyrimidin-2-ylamino)-4-oxa-7,10-diaza-1(3,1)]",> 7.00,–,"IC50 ([2]; Homo sapiens, read-out: Pglo B-Cell [nM]): < 100 nM"
"Cc1ccc2cc1CNC(=O)[C@H](CCc1ccccc1)NC(=O)[C@@H](NC(=O)C(C)(C)C)CC(=O)N1CCCC(CCO2)C1 (stereo partly drawn) [Compound 27, N-((9S,12S)-5^4-methyl-8,11,14-trioxo-9-phenethyl-4-oxa-7,10-diaza-1(3,1)-piperidina-5(1,3)-benzenacyclotetradecaphane-12-yl)pivalamide]",> 7.00,> 7.00,pIC50 [4]: > 7.00
"Cc1ccc2cc1CNC(=O)[C@H](CCc1ccccc1)NC(=O)[C@@H](NC(=O)c1ncccn1)CC(=O)N1CCCC(CCO2)C1 (stereo partly drawn) [Compound 32, N-((9S,12S)-5^4-methyl-8,11,14-trioxo-9-phenethyl-4-oxa-7,10-diaza-1(3,1)-piperidina-5(1,3)-benzenacyclotetradecaphane-12-yl)pyrimidine-2-carboxamide]",–,> 7.00,–

# Further lines, with some results ahead:
pIC50 ([3]; B-cell),SMILES,pIC50 ([2]; Homo sapiens),also measured
> 7.00,"CC(=O)N[C@H]1CC(=O)N2CCCC(CCOc3ccc(C)c(c3)CNC(=O)[C@H](CCc3ccccc3)NC1=O)C2 (stereo partly drawn) [Compound 33, N-((9S,12S)-5^4-methyl-8,11,14-trioxo-9-phenethyl-4-oxa-7,10-diaza-1(3,1)-piperidina-5(1,3)-benzenacyclotetradecaphane-12-yl)acetamide]",> 7.00,–
> 7.00,"Cc1ccc2cc1CNC(=O)[C@H](CCc1ccccc1)NC(=O)[C@@H](NC1COC1)CC(=O)N1CCCC(CCO2)C1 (stereo partly drawn) [Compound 35, (9S,12S)-5^4-methyl-12-(oxetan-3-ylamino)-9-phenethyl-4-oxa-7,10-diaza-1(3,1)-piperidina-5(1,3)-benzenacyclotetradecaphane-8,11,14-trione]",> 7.00,–

# Reference: patent publication US20240415819A1, “MACROCYCLIC COMPOUNDS AS PROTEASOME SUBUNIT BETA TYPE-5 INHIBITORS” (Lead Discovery Center GmbH, priority 2021, published 2024)
